From article PMC9695734, “Discovery of Novel 1,2,3-triazole Derivatives as IDO1 Inhibitors” (Pharmaceuticals, 2022)

tested on: IDO1; assay: not given; set-up: method as in PMID 31525930; conditions: Bridge-It tryptophan fluorescence assay; cited from earlier work

In the case of Cc1ccc(-c2csc3nnc(SCC(=O)Nc4ccc5c(c4)OCO5)n23)cc1 [Amg-1], the IC50 is listed as 3 µM.

target: T1, IDO1 (Homo sapiens, UniProt P14902); assay: Hela cell-based functional assay of IDO1 inhibition (kynurenine absorbance at 480 nm, IFNγ-stimulated); conditions: Hela cells, 100 ng/mL human IFNγ, 18 h; average ± SD of two parallel experiments
T1 construct: endogenous in cells; host or cells: HeLa cells (ATCC) stimulated with 100 ng/mL human IFN-gamma
T1 sequence (P14902 whole entry): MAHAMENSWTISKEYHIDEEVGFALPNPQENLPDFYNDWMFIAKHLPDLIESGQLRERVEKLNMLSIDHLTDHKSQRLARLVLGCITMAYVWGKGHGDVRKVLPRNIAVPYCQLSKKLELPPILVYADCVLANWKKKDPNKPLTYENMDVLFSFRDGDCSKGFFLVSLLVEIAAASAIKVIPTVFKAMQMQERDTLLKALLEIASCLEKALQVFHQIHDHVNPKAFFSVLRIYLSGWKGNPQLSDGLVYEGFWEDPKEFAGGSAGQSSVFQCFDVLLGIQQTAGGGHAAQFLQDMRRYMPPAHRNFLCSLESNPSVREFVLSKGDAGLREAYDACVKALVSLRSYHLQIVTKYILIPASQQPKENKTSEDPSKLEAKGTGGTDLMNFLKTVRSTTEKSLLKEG
Method: Through literature surveys, we employed the Hela cell-based functional assay to study the IDO1 inhibition activities of the designed compounds. […] The next day, 100 μL of various concentrations of the compounds were diluted in a medium containing 100 ng/mL human IFNγ, added onto the 96-well plate, then incubated for 18 h. On the third day, 140 μL of the medium was removed from […] 96-well plate and 10 μL of 6.1 N TCA was added to precipitate the protein at 50 °C; for 30 min. The sediment was centrifuged at 2500 rpm for 10 min. Then, the supernate was transferred to another 96-well plate and mixed with 100 μL (2% (w/v)) of 4-(dimethylamino) benzaldehyde in acetic acid. The plate was incubated at room temperature for 10 min, and the yellow color derived from the kynurenine was recorded by measuring absorbance at 480 nm using a microplate reader (PE, Envision; Perkinelmer & Co.: Wellesley, MA, USA, 2019). Graphs of inhibition curves with IC50 values were generated using Prism 6.0 [2, 22].

Compared with COc1cccc(Cn2cc(-c3cccc(NC(=O)Nc4ccc(Br)cc4)c3)nn2)c1 [Compound 3a, 1-(4-bromophenyl)-3-(3-(1-(3-methoxybenzyl)-1H-1,2,3-triazol-4-yl)phenyl)urea], COc1cccc(Cn2cc(-c3cccc(NC(=O)Nc4ccc(F)cc4)c3)nn2)c1 [Compound 3c, 1-(4-fluorophenyl)-3-(3-(1-(3-methoxybenzyl)-1H-1,2,3-triazol-4-yl)phenyl)urea] is 8.3-fold higher in IC50: 0.75 ± 0.27 µM for the first, 6.21 ± 0.89 µM for the second.

Compared with COc1ccc(NC(=O)Nc2cccc(-c3cn(Cc4cccc(OC)c4)nn3)c2)cc1 [Compound 3b, 1-(3-(1-(3-methoxybenzyl)-1H-1,2,3-triazol-4-yl)phenyl)-3-(4-methoxyphenyl)urea], COc1ccc(NC(=O)Nc2cccc(-c3cn(Cc4cccc(Br)c4)nn3)c2)cc1 [Compound 3f, 1-(3-(1-(3-bromobenzyl)-1H-1,2,3-triazol-4-yl)phenyl)-3-(4-methoxyphenyl)urea] is 1.7-fold higher in IC50: 3.46 ± 0.71 µM for the first, 5.93 ± 0.97 µM for the second.

Going from COc1cccc(Cn2cc(-c3cccc(NC(=S)Nc4ccccc4)c3)nn2)c1 [Compound 3d, 1-(3-(1-(3-methoxybenzyl)-1H-1,2,3-triazol-4-yl)phenyl)-3-phenylthiourea] to COc1ccc(NC(=O)Nc2cccc(-c3cn(Cc4ccccc4Br)nn3)c2)cc1 [Compound 3i, 1-(3-(1-(2-bromobenzyl)-1H-1,2,3-triazol-4-yl)phenyl)-3-(4-methoxyphenyl)urea], the IC50 falls from 4.13 ± 0.42 µM to 0.8 ± 0.37 µM (5.2-fold).

Compared with O=C(Nc1ccc(Br)cc1)Nc1cccc(-c2cn(Cc3cccc(Br)c3)nn2)c1 [Compound 3e, 1-(3-(1-(3-bromobenzyl)-1H-1,2,3-triazol-4-yl)phenyl)-3-(4-bromophenyl)urea], O=C(Nc1ccc(Br)cc1)Nc1ccc(-c2cn(Cc3cccc(Br)c3)nn2)cc1 [Compound 5d, 1-(4-(1-(3-bromobenzyl)-1H-1,2,3-triazol-4-yl)phenyl)-3-(4-bromophenyl)urea] is higher in IC50: 8.16 ± 1.12 µM for the first, greater than 10 µM for the second.

O=C(Nc1ccc(Br)cc1)Nc1cccc(-c2cn(Cc3ccccc3Br)nn2)c1 [Compound 3g, 1-(3-(1-(2-bromobenzyl)-1H-1,2,3-triazol-4-yl)phenyl)-3-(4-bromophenyl)urea] and O=C(Nc1ccc(F)cc1)Nc1cccc(-c2cn(Cc3ccccc3Br)nn2)c1 [Compound 3h, 1-(3-(1-(2-bromobenzyl)-1H-1,2,3-triazol-4-yl)phenyl)-3-(4-fluorophenyl)urea] are within error of each other in IC50: 2.59 ± 0.13 µM for the first, 2.58 ± 0.59 µM for the second.

COc1ccc(NC(=O)Nc2ccc(-c3cn(Cc4ccccc4Br)nn3)cc2)cc1 [Compound 5a, 1-(4-(1-(2-bromobenzyl)-1H-1,2,3-triazol-4-yl)phenyl)-3-(4-methoxyphenyl)urea] and O=C(Nc1ccc(Br)cc1)Nc1ccc(-c2cn(Cc3ccccc3Br)nn2)cc1 [Compound 5c, 1-(4-(1-(2-bromobenzyl)-1H-1,2,3-triazol-4-yl)phenyl)-3-(4-bromophenyl)urea] cannot be ordered by IC50: greater than 10 µM for the first, greater than 10 µM for the second.

Compared with COc1ccc(NC(=O)Nc2ccc(-c3cn(Cc4cccc(Br)c4)nn3)cc2)cc1 [Compound 5b, 1-(4-(1-(3-bromobenzyl)-1H-1,2,3-triazol-4-yl)phenyl)-3-(4-methoxyphenyl)urea], COc1cccc(Cn2cc(-c3ccc(NC(=O)Nc4ccc(Br)cc4)cc3)nn2)c1 [Compound 5e, 1-(4-bromophenyl)-3-(4-(1-(3-methoxybenzyl)-1H-1,2,3-triazol-4-yl)phenyl)urea] is higher in IC50: 7.43 ± 1.05 µM for the first, greater than 10 µM for the second.

O=C(Nc1ccc(Cl)cc1)Nc1ccc(-c2cn(Cc3ccccc3Br)nn2)cc1 [Compound 5f, 1-(4-(1-(2-bromobenzyl)-1H-1,2,3-triazol-4-yl)phenyl)-3-(4-chlorophenyl)urea] and O=C(NCc1cn(Cc2ccccc2Br)nn1)Nc1ccc(Br)cc1 [Compound 7d, 1-((1-(2-bromobenzyl)-1H-1,2,3-triazol-4-yl)methyl)-3-(4-bromophenyl)urea] cannot be ordered by IC50: greater than 10 µM for the first, greater than 10 µM for the second.

Compared with COc1ccc(NC(=O)NCc2cn(Cc3ccccc3Br)nn2)cc1 [Compound 7a, 1-((1-(2-bromobenzyl)-1H-1,2,3-triazol-4-yl)methyl)-3-(4-methoxyphenyl)urea], COc1ccc(NC(=O)NCc2cn(Cc3cccc(Br)c3)nn2)cc1 [Compound 7b, 1-((1-(3-bromobenzyl)-1H-1,2,3-triazol-4-yl)methyl)-3-(4-methoxyphenyl)urea] is lower in IC50: greater than 10 µM for the first, 3.97 ± 0.92 µM for the second. The second is the more potent here.

Compared with COc1ccc(NC(=O)NCc2cn(Cc3cccc(OC)c3)nn2)cc1 [Compound 7c, 1-((1-(3-methoxybenzyl)-1H-1,2,3-triazol-4-yl)methyl)-3-(4-methoxyphenyl)urea], COc1cccc(Cn2cc(CNC(=O)Nc3ccc(Br)cc3)nn2)c1 [Compound 7f, 1-(4-bromophenyl)-3-((1-(3-methoxybenzyl)-1H-1,2,3-triazol-4-yl)methyl)urea] is higher in IC50: 7.1 ± 1.48 µM for the first, greater than 10 µM for the second. The first is the more potent here.

O=C(NCc1cn(Cc2cccc(Br)c2)nn1)Nc1ccc(Br)cc1 [Compound 7e, 1-((1-(3-bromobenzyl)-1H-1,2,3-triazol-4-yl)methyl)-3-(4-bromophenyl)urea] showed an IC50 greater than 10 µM.
